Measured values published in publication PMC9386001, “Identification of naturally occurring inhibitors in Xian-Ling-Gu-Bao capsule against the glucuronidation of estrogens” (Frontiers in Pharmacology, 2022).
Blank lines part the entries; values can stand above or below the molecule they belong to.

What was measured:
[1] = tested on: human intestine microsomes (HIM); assay: Estrogen glucuronidation kinetics by HIM; assay type: in vitro ADME; settings: HIM
Protocol: (§1) All experiments were performed in triplicate.
(§2) Vg=Cs∗V/Cprotein∗T∗Vprotein. […] (5)

[2] = Estrogen glucuronidation kinetics by HIM; assay type: in vitro ADME, human; settings: human, human intestine microsomes, pH 7.4, HIM, read-out: CL int or CL max
Protocol: as §1, §2

[3] = biological target: T1, UGT2B7 (Homo sapiens, UniProt P16662); assay: Estrogen glucuronidation kinetics by expressed UGT2B7; settings: recombinant (expressed) UGT2B7, pH 7.4
T1 sequence (P16662 24-529): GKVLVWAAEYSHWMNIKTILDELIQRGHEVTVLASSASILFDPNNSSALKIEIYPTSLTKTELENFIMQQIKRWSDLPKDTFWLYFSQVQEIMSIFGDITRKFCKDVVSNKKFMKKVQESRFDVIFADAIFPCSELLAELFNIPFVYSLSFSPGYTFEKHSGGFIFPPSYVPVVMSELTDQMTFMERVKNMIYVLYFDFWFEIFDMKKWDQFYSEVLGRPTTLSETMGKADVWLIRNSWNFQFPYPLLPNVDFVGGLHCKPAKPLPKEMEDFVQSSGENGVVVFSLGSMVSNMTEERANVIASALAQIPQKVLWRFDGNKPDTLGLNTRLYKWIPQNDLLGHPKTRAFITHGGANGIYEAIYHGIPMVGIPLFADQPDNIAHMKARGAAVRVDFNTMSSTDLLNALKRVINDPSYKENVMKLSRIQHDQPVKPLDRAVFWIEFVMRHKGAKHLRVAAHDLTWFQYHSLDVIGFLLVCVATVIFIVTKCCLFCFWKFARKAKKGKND

[4] = tested on: human liver microsomes (HLM); assay: Estrogen glucuronidation kinetics by HLM; assay type: in vitro ADME; settings: HLM
Protocol: (§3) In brief, incubation mixtures (100 μL) contained Tris-HCl buffer solution (50 mM, pH = 7.4), microsomes (HLM, HIM, 0.5 mg/ml) or UGT enzymes (1 mg/ml), MgCl2 (0.88 mM), alamethicin (22 μg/ml), and D-saccharic-1,4-lactone (4.4 mM) and respective substrate. The volume of organic solvent in incubation mixtures was kept below 1%. After pre-incubation at 37°C for 5 min, the reaction was commenced with the addition of UDPGA (4 mM) and subsequently incubated at 37°C for a period. The reaction was terminated by adding 100 μL of cold acetonitrile. Then, the incubation mixtures were vortexed and centrifuged at 13,800 g for 10 min to collect the supernatant for analysis.
as §1
(§4) Glucuronidation rates were expressed as the amounts of formed metabolites per minute per milligram protein (pmol/min/mg protein) based on Eq. 1. Furthermore, kinetic characteristics were evaluated from the suitable curves based on the profile of the Eadie–Hofstee plot, and corresponding kinetic parameters were estimated using Eqs 2–4. Appropriated model fitting was performed by GraphPad Prism V5 software (San Diego, CA).
(§5) The intrinsic clearance (CL int ) was derived from V max /K m for Michaelis–Menten and substrate inhibition models, and the maximal clearance (CL max ) was obtained using Eq. 5 for Hill kinetics. Vg=Cs∗V/Cprotein∗T∗Vprotein. (1) V=Vmax×[S]/Km+[S], (2) V=Vmax×[S]/Km+[S](1+[S]/Ksi), (3) V=Vmax×[S]^n/S50n[…], (4) CLmax=Vmax/S50×n−1/n(n−1)^1/n. (5)

[5] = Estrogen glucuronidation kinetics by HLM; assay type: in vitro ADME, human; settings: human, human liver microsomes, pH 7.4, HLM, read-out: CL int or CL max
Protocol: as §3, §1, §4, §5

[6] = biological target: T2, UGT1A10 (Homo sapiens, UniProt Q9HAW8); set-up: purchased Corning Biosciences; settings: substrate of UGT1A10; ref Xin et al., 2016; Gao et al., 2020; cited from earlier work
T2 sequence (Q9HAW8 26-530): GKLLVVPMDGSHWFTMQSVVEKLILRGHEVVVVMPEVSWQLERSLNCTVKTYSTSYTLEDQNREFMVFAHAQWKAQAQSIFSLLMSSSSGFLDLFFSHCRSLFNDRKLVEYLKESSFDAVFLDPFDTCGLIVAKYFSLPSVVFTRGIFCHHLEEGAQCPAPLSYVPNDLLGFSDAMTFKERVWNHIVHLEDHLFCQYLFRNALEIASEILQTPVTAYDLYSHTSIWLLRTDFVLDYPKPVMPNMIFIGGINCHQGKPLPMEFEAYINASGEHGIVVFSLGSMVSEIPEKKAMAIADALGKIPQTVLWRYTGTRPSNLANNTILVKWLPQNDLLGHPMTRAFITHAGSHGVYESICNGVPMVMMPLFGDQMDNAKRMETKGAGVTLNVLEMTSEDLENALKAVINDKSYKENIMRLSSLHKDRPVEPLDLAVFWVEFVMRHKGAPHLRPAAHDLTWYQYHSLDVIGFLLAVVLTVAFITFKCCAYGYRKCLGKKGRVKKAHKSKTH

[7] = biological target: T3, UGT1A3 (Homo sapiens, UniProt P35503); assay: Estrogen glucuronidation kinetics by expressed UGT1A3; assay type: in vitro ADME
T3 construct: purchased Corning Biosciences
T3 sequence (P35503 29-534): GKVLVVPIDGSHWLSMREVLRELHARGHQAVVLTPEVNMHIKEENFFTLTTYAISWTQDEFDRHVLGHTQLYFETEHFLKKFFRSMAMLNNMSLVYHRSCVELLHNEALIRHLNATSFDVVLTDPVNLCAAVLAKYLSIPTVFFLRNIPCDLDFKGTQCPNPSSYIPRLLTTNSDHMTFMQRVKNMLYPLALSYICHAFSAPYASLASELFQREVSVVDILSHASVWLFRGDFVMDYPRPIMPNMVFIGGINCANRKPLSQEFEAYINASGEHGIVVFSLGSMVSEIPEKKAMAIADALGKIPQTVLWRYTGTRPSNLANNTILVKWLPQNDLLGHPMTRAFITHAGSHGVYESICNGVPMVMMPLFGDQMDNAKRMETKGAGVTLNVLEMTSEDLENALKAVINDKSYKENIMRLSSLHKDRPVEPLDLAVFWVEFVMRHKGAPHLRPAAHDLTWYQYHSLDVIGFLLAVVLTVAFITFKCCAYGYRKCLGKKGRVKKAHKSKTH
Protocol: as §3, §1, §4
(§6) The intrinsic clearance (CL int ) was derived from V max /K m for Michaelis–Menten and substrate inhibition models, and the maximal clearance (CL max ) was obtained using Eq. 5 for Hill kinetics. Vg=Cs∗V/Cprotein∗T∗Vprotein. […]

[8] = biological target: T2, UGT1A10; assay: Glucuronidation kinetics by expressed UGT1A10
Protocol: as §3, with “The glucuronidation assay was conducted as described previously ([Qin et al., 2018]; [Xu et al., 2018]). In” for “In”
as §1, §4, §5

[9] = biological target: T4, UGT1A1 (Homo sapiens, UniProt P22309); assay: Estrogen glucuronidation kinetics by expressed UGT1A1; settings: 3-O-glucuronide formation
T4 sequence (P22309 26-533): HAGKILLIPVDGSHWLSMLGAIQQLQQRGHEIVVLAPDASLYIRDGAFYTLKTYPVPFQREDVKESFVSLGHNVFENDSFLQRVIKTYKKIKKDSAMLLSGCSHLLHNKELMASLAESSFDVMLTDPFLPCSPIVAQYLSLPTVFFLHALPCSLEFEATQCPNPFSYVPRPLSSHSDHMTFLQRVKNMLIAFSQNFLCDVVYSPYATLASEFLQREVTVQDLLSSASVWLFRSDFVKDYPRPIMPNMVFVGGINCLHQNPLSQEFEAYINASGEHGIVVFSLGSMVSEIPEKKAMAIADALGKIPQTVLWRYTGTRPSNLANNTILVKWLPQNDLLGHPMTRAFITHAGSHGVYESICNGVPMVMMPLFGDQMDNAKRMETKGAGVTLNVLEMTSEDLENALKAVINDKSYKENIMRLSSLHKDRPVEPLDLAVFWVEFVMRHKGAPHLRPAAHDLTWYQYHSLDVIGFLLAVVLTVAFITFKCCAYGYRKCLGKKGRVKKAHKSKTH
Protocol: as §3, §1, §4, §6

[10] = substrate: C[C@]12CC[C@@H]3c4ccc(O)cc4CC[C@H]3[C@@H]1CCC2=O; assay: Estrogen glucuronidation kinetics by expressed UGT1A3; assay type: in vitro ADME, human; settings: other: UGT1A3; 3-O-glucuronide formation; pH 7.4; 37.0 °C
[11] = 3-O-glucuronide formation, Hill coefficient

K m or S50 ([1]; 3-O-glucuronide formation): 50.18 ± 4.40 µM | K m or S50 ([1]; 16-O-glucuronide formation): 11.59 ± 0.49 µM | microsomal CLint ([2]; 3-O-glucuronide formation): 10.74 ± 0.1 µL/min/mg | microsomal CLint ([2]; 16-O-glucuronide formation): 109.4 ± 0.04 µL/min/mg | microsomal CLint [3]: 793.8 ± 0.07 µL/min/mg | K m or S50 ([4]; 3-O-glucuronide formation): 86.1 ± 12.39 µM | K m or S50 ([4]; 16-O-glucuronide formation): 11.91 ± 0.60 µM | microsomal CLint ([5]; 3-O-glucuronide formation): 1.58 ± 0.16 µL/min/mg | microsomal CLint ([5]; 16-O-glucuronide formation): 542.32 ± 0.05 µL/min/mg
Molecule: C[C@]12CC[C@@H]3c4ccc(O)cc4CC[C@H]3[C@@H]1C[C@@H](O)[C@@H]2O [E3, estriol]

K m or S50 ([1]; 3-O-glucuronide formation): 8.82 ± 0.37 µM | h [1, 11]: 1.63 ± 0.09 | microsomal CLint ([2]; 3-O-glucuronide formation): 25.25 ± 0.24 µL/min/mg | K m or S50 ([4]; 3-O-glucuronide formation): 6.87 ± 0.59 µM | h [7, 11]: 2.09 ± 0.16 | microsomal CLint ([7]; human, recombinant (expressed) UGT1A3, pH 7.4, 3-O-glucuronide formation, read-out: CL int or CL max): 11.7 ± 0.95 µL/min/mg
Molecule: C[C@]12CC[C@@H]3c4ccc(O)cc4CC[C@H]3[C@@H]1CCC2=O [E1, Estrone]

K m or S50 ([8]; 3-O-glucuronide formation): 113.2 ± 46.66 µM | Ki ([8]; 3-O-glucuronide formation, substrate inhibition constant): 71.98 ± 35.77 µM | K m or S50 ([8]; 17-O-glucuronide formation): 16.39 ± 3.53 µM | K m or S50 [9]: 11.08 ± 0.48 µM | V max [9]: 754.9 ± 15.14 pmol/min/mg
Molecule: C[C@]12CC[C@@H]3c4ccc(O)cc4CC[C@H]3[C@@H]1CC[C@@H]2O [E2, β-estradiol]

Further lines, the molecule ahead of its results:

Molecule: Cc1cc(=O)oc2cc(O)ccc12 [4-MU, 4-methylumbelliferone]
Km [6]: ~60 µM

B1: UGT1A3 (Homo sapiens) (protein)
chain: T3 sequence (P35503 29-534)
notes: purchased Corning Biosciences
K0.5 [10]: 9.23 ± 0.39 µM
